Results from patent publication US20230365570A1, “COMPOUNDS WITH GLUCOCORTICOID SPARING EFFECTS AND USES THEREOF” (The Regents of the University of California, priority 2020, published 2023).

What was measured:
[1] = system: THP-1 cells; assay: IL-1ß stimulated TNF release by THP-1 cells; format: cell-based, human
Procedure: (§1) THP-1 cells (10^5 cells/200 μL/well) and RA FLS (104/200 μL/well) were plated in 96 well plates and pre-treated with compound or vehicle for 1 h and then stimulated with either LPS (10 ng/ml), 1L-1ß (2 ng/ml) or TNF (2 ng/ml for THP-1 and 1 ng/ml for RA FLS). After 18 h of incubation, supernatants were collected and the levels of cytokines and chemokines in the culture supernatants were measured by ELISA according to the manufacturer's protocols (R&D systems, Minneapolis, MN).
(§2) The lead compounds belonging to chemotypes 1, 3, and 5 were tested for potency in suppressing chemokine and cytokine production by THP-1 cells in the presence of different inflammatory stimuli. The production of CXCL8 induced by either LPS (10 ng/ml), IL-1ß (2 ng/ml), or TNF (2 ng/ml) and TNF induced by IL-1ß (2 ng/ml) was assessed using serially diluted compounds. The compounds except 1-2 reduced the level of CXCL8 production stimulated by LPS in a dose dependent manner (FIG. 3A). However, the compounds from chemotype 5 enhanced CXCL8 release by THP-1 cells when stimulated with IL-111, or TNF (FIGS. 3B, C). […] The 1Cs0 for 1-1, 1-2 and 3-1 for IL-1ß stimulated CXCL8 release included 400, 1770, and 2020 nM, respectively, (FIG. 3C).

[2] = system: murine bone marrow-derived dendritic cells (BMDCs); assay: TNF-α and IP-10 induction by TLR and STING ligands in murine BMDCs; format: cell-based, mouse; conditions: BMDCs from WT and Tmem173-/- mice (FIGS. 9A-D)
Procedure: (§3) FIGS. 9A-9F show the partial STING dependent activity of nitrofuranylamide compounds 4, 5 and 6 and inhibition of TLR pathways.
(§4) Since the synthesized compounds were identified via assays in human cells, there was interest in verifying the potency of these compounds in murine cells. Compounds were incubated with murine bone marrow-derived dendritic cells (BM DCs) obtained from wild-type (WT) mice and STING null (Tmem173^−/−) mice as STING had been reported as the target of other nitrofuranylamides. […] To compare these compounds, the IC50 values of these compounds were assessed in dose titration studies.

[3] = system: mBMDCs; assay: IFNβ induced by DMXAA in mBMDCs; format: cell-based, mouse; conditions: for IFNβ induced by DMXAA: mBMDCs (FIG. 9F)
Procedure: as §3, §4

[4] = system: THP-1 cells; assay: Cell viability by MTT assay in THP-1 cells; format: cell-based, human; conditions: for Cellular viability (% Viability compared to Veh): 10 uM (FIG. 8B)
Procedure: Two types of tetrazolium were used for viability assays. […] After 18 h of incubation, 0.5 mg/ml 3[4,5-dimethylthiazol-2-yl]-2,5-dipheyl tetrazolium bromide (MTT; Thermo Fisher Scientific) in assay media was added to each well at a final concentration of (0.5 mg/ml) and further incubated for 4-6 h. The absorbances at 570 and 650 nm were measured by a Tecan Infinite M200 plate reader, For RA FLS, the cells were dispersed into 96-well flat bottom plates (104/200 μL/well) and incubated overnight. The next day, RA FLS were treated with 5 μM of each compound for 18 h of incubation. Ten μl of WST-8 [2-(2-methoxy-4-nitrophenyl)-3-(4-nitrophenyl)-5-(2,4-disulfophewnyl)-2H-tetrazolium, monosodium salt] solution was added to each well and the cells were further incubated for 2-4 h. The absorbance was measured at 450 nm with Bio-Rad iMark plate reader (Bio-Rad Laboratories Inc., Hercules, CA, Unites States).

[5] = system: NF-κB; assay: NF-κB activation assay in LPS stimulated CellSensor NF-κB-bla THP-1 reporter cells; format: cell-based, human; conditions: 5 h and 16 h time points
Procedure: In the presence of lactamase, CCF4 was enzymatically cleaved and excitation at 409 nm produced a blue fluorescence signal (at 450 nm), The CellSensor® NF-κB-bla THP-1 cells were dispersed in 96-well plates (5×10^4 cells/200 μL/well) and incubated for 4 h, Then the cells were treated with 5 μM of each compound and 10 ng/ml of LPS for 5 or 12 h in 5% CO2 at 37° C. After incubation, the ß-lactamase substrate mixture (prepared according to the manufacturer's protocol) was added to each well. Plates were incubated at room temperature in the dark for 2 h. Fluorescence was measured on a Tecan Infinite M200 plate reader (Tecan, Mannedorf, Switzerland) at an excitation wavelength of 405 nm and emission wavelengths of 465 and 535 nm. Emission ratios are calculated by dividing values from emission wavelength of 465 nm by those from emission wavelength of 535 nm, The response ratio was calculated as follows [(emission ratio of a test well)/average emission ratio of wells with vehicle (0.5% DMSO)] and values were normalized to the LPS control treated wells [response ratio of the compound/response ratio of LPS].
Using LPS as a primary inflammatory stimulus the effect of these compounds on NF-κB activity was evaluated at two time points to profile the kinetics of their suppression.

[6] = system: THP-1 cells; assay: Combination and synergy of compounds with DEX, CXCL8 release by TNF stimulated THP-1 cells; format: cell-based, human
Procedure: Drug synergy analysis was performed using lsobologram plots which were calculated according to reported procedures to compute IC50 and determine synergism. IC50 is computed from the median effect equation. Synergism analysis is carried out using the Combination index (Cl)-isobol method. Data analysis was performed using the CompuSyn software available on combisyn.com, Detailed methodology was used as described in a prior report. Briefly, the median-effect equation is computed to obtain the linear regression for the effect of inhibitors DEX and 1−1 as Fa/Fu=(D/D50)^m, where D is the dose; Fa and Fu is the fraction of the inhibition and uninhibited response by the dose D (Fa+Fu=1); D50 is the dose producing the median effect (i.e, IC50). The constant m determines the shape of the dose-effect curve. The median-effect equation in logarithmic form is log (Fa/Fu) =m log(D)−m log (D50) which essentially represents a linear relationship between log(Fa/Fu) and log(D). […] This is followed by Cl-isobol method to quantitatively assess the synergism between these inhibitor drugs. A combination index (Cl) is estimated from dose-effect data of single and combined drug treatments. A value of C; less than one indicates synergism; Cl=1 indicates additive effect; and Cl>1 indicates antagonism. Drug interaction (synergism or antagonism) is more pronounced the further a CI value is from 1. […] The doses Dx1 and Dx2 were estimated from the median effect equation above for single drug treatments. From the median effect equation, the estimated dose (i.e., D) necessary to produce the inhibition (i.e., Fa, Fu) obtained by the combination was calculated. The results are presented as a normalized isobolograrn. A point in the isobologram represents the effect of a drug(s) treatment.
To assess whether the remaining candidate compounds would provide additional benefit to a low dose of glucocorticoid, THP-1 cells were stimulated with TNF and treated them with serially diluted compounds and 100 nM DEX (FIGS. 4A-C). […] Next whether there was an additive or synergistic effect with these three compounds and DEX was formally addressed. […] The four CXCL8 levels below the maximum plateau were used to calculate an isobologram (FIG. 5D).

[7] = system: THP-1 cells; assay: IL-1ß stimulated CXCL8 release by THP-1 cells; format: cell-based, human; conditions: IL-1ß 2 ng/ml, overnight (FIG. 3C)
Procedure: as §1, §2

[8] = system: THP-1 cells; assay: CXCL8 production by LPS stimulated THP-1 cells (ELISA); format: cell-based, human; conditions: LPS 10 ng/ml, purchased compound, mean LPS CXCL8 201.1 pg/ml = 100%
Procedure: as §1
The 122 hit compounds underwent additional screening and were evaluated for their effects on cell viability and the ability to suppress production of an NF-κB-associated chemokine, CXCL8 (IL-8) by LPS stimulated THP-1 cells (FIG. 2D). The cells were also examined for viability after 24 h of stimulation by MTT assay (FIG. 2E).
Three of the eleven chemotypes were excluded based on the potential for them to be Michael acceptors, In many cases α,β-unsaturated carbonyls such as those found in these chemotypes can form adducts with thiols, especially under physiological conditions (pH=6-8), reducing the in vivo efficacy. Also, Michael acceptors are often […] IKKß inhibitors and thereby inhibit NF-KB response. […]

[9] = system: THP-1 cells; assay: TNF stimulated CXCL8 release by THP-1 cells; format: cell-based, human; conditions: TNF 2 ng/ml, overnight (FIG. 3B)
Procedure: as §1, §2

[10] = system: mice; assay: K/BxN serum induced arthritis and allodynia in mice; format: in vivo, mouse
Procedure: FIGS. 10A-10D show the in vivo activity of compound 5 in WT and STING knock-out Tmem173^−/− mice. Mice were induced with K/B×N serum on days 0 and 2 to have arthritis and related pain. Compound 5 was administered (750 nmol) IP BID on days 0-5. […] (B) These effects of compound 5 are not seen in similarly treated Tmem173−/− mice. Mechanical allodynia is measured with monofilaments in a von Frey assay and increase in pain perception by the animal is recorded as a drop in the threshold. *P<0.0001 by two-way ANOVA.

[11] = WT mice, 750 nmoles IP BID for 6 days

Compound | TNF release when stimulated with IL-1ß ([1]; THP-1 cells) | mIP-10 production induced by TLR4 (LPS), TLR7 (1V270) and STING (DMXAA) ligands [2] | mTNF-a production induced by TLR4 (LPS), TLR7 (1V270) and STING (DMXAA) ligands [2] | IFNβ induced by DMXAA [3] | Cellular viability (% Viability compared to Veh) [4] | also measured
O=C(Nc1cc([N+](=O)[O-])ccc1Cl)c1ccc([N+](=O)[O-])o1 [Compound 6] | Dose-dependent inhibition | inhibited | inhibited | Dose-dependent inhibition | approximately 100% | –
NC(=O)Nc1sc(-c2ccc(F)cc2)cc1C(N)=O [UTC, 5-(4-fluorophenyl)-2-ureidothiophene-3 carboxylic acid amide] | – | – | – | – | – | Inhibition of NF-κB activity [5]: inhibited NF-κB activity at both time points
C[C@@H]1C[C@H]2[C@@H]3CCC4=CC(=O)C=C[C@]4(C)[C@@]3(F)[C@@H](O)C[C@]2(C)[C@@]1(O)C(=O)CO [DEX, dexamethasone, reference compound] | – | – | – | – | – | IC50 ([6]; Homo sapiens, TNF stimulated THP-1 cells, single agents (FIG. 5A), read-out: IC50 for TNF stimulated CXCL8 release (titration with DEX)): 0.3 µM
CCOc1ccc(NC(=O)c2ccc([N+](=O)[O-])o2)cc1 [Compound 4] | Dose-dependent inhibition | inhibited | inhibited | Dose-dependent inhibition | approximately 100% | –
CCCCNc1ncnc2c1cnn2-c1ccc(C)cc1C [Compound 1-2] | – | – | – | – | – | IC50 ([1]; THP-1 cells, IL-1ß 2 ng/ml, overnight (FIG. 3D)): 2.77 µM; IC50 [7]: 1.77 µM; CXCL8 production. Relative to LPS (purchased) [8]: 70.1%; % Cellular Viability (Purchased) ([4]; purchased compound): 100.1%; IC50 [9]: 4.13 µM; Effect of addition of DEX on CXCL8 production ([6]; TNF 2 ng/ml stimulated THP-1 cells, serially diluted compound plus 100 nM DEX (FIGS. 4A-C)): only effective at the lower doses; Synergy with DEX, isobologram of potency ratios for CXCL8 ([6]; TNF stimulated THP-1 cells, compound and DEX titrated at same molarity (FIG. 5D)): modestly synergistic
polymyxin B | – | – | – | – | – | Inhibition of NF-κB activity [5]: suppressed NF-κB activity at both timepoints
O=C(Nc1cccc(C(F)(F)F)c1)c1ccc([N+](=O)[O-])o1 [Compound 5] | Dose-dependent inhibition | inhibited | inhibited | Dose-dependent inhibition | approximately 100% | Cytokine inhibition IC50, human cell studies ([1]; THP-1 cells stimulated with IL-1β, TNF-a (FIG. 9E)): nanomolar (nM) range; Cytokine inhibition IC50, mouse cell studies ([3]; mBMDCs stimulated with DMXAA, IFNβ (FIG. 9F)): nanomolar (nM) range; Pain or swelling in Tmem173-/- mice ([10]; Tmem173-/- mice, 750 nmol IP BID): no statistically significant effect; Acute inflammation in the ankle (ankle thickness) [10, 11]: modest effect; Mechanical allodynia (von Frey filaments) [10, 11]: significantly reduced
